Patent publication US5717095A, “Nucleotide analogs” (Gilead Sciences, Inc., priority 1996, dated 1998)
“Also recorded” adds a separate entry of the source. Like-named read-outs stand apart in the source and are kept apart here.

Legend:
HSV-2 (strain 414-92) = experiment: Inhibition of HSV-2 mediated cell killing in MA 104 cells (crystal violet); assay type: cell-based; settings: Human alphaherpesvirus 2, MA104, 72 h, read-out: HSV-2 IC50, concentration that inhibits cell killing mediated by HSV-2 by 50%
Protocol: (§1) Compounds were individually tested for activity against HSV-1 and/or HSV-2. HSV-2 (strain 414-92) was tested using MA 104 cells in the following assay protocol. 96-Well plates were seeded with 1×10^4 MA 104 cells per well using 200 μL minimal essential medium (MEM) containing 10% calf serum per well, and incubated overnight at 37° C. The compounds were dissolved in MEM Earle's Salts without serum. The medium was removed by aspiration and 100 μL MEM Earle's Salts without serum was added to the wells. Serial 3-fold dilutions of the compounds were prepared by serial transfer of 50 μL of medium from wells containing compound to wells lacking compound. The plates were incubated 15 minutes at 37° C. followed by addition of 100 PFU/well of virus in MEM Earle's Salts with 2% fetal bovine serum. The plates were then incubated at 37° C. for three days until approximately 90% of the cells in virus infected control wells containing no compound were killed. Following incubation, medium was aspirated and the wells were washed with sterile PBS. 100 μL 0.5% crystal violet in 20% methanol was then added to the wells for 5 minutes, aspirated and the wells were washed two or three times with distilled water. 200 μL of 0.01 N HCl was added to the wells and the absorbance of each well at 595 nm was determined. The results, shown in Table 6, were expressed as the IC50, the concentration (μM) that inhibits cell killing mediated by HSV-2 by 50%. […] The toxicity of the compounds were expressed as the CC50, the concentration that kills 50% of uninfected cells.

[1] = Toxicity to uninfected MA 104 cells; assay type: cell-based; settings: monkey, read-out: CC50, concentration that kills 50% of uninfected cells
KOS strain of HSV-1 = experiment: Activity against KOS strain of HSV-1 in VERO cells; assay type: cell-based; settings: read-out: HSV-1 EC50, concentration that inhibits cell killing by 50%
Protocol: The compounds were also tested for activity against the KOS strain of HSV-1 in VERO cells. The results, shown in Table 7, were expressed as the EC50, the concentration (μM) that inhibits cell killing mediated by HSV-2 by 50%.

[2] = Conversion in rat intestinal homogenate; assay type: in vitro ADME
Source text: (§2) The cHPMPC pivaloyloxymethyl ester synthesis yields a racemic mixture at the phosphorus atom. The mixture was separated by HPLC into the two isomers which were then exposed to an rat intestinal homogenate or to a rat intestinal wash.

[3] = Conversion in rat intestinal wash; assay type: in vitro ADME; settings: both phosphorus isomers
Source text: as §2

HSV II = experiment: Inhibition of cytopathic effects by HSV II in MA 104 cells (XTT); assay type: cell-based, HSV-2; settings: for IC50: Human alphaherpesvirus 2, MA104
Protocol: as §1, with “100 μL 0.5% crystal violet in 20% methanol was then added to the wells for 5 minutes, aspirated and the wells were washed two or three times with distilled water. 200 μL of 0.01 N HCl was added to the wells and the absorbance of each well at 595 nm was determined.” left out

[4] = test system: herpes simplex virus, type 1 or 2 (HSV-1 and -2); settings: cited from earlier work
[5] = test system: varicella zoster virus (VZV); settings: cited from earlier work
adenovirus = settings: cited from earlier work
vaccinia virus = settings: cited from earlier work
[6] = test system: thymidine kinase-deficient (TK^-) mutants of herpes simplex virus; settings: TK^- HSV mutants; cited from earlier work
HCMV [7] = settings: cited from earlier work
[8] = test system: phocid herpesvirus type 1 (seal herpesvirus, SeHV); settings: cited from earlier work
[9] = test system: simian herpesvirus type 1 (SHV-1), or pseudorabies virus or Aujeszky's disease virus; settings: SHV-1 / pseudorabies virus; cited from earlier work
[10] = test system: bovid herpesvirus type 1 (infectious bovine rhinotracheitis virus, BHV-1); settings: cited from earlier work
[11] = test system: equid herpesvirus type 1 (equine abortion virus, EHV-1); settings: cited from earlier work
[12] = test system: African swine fever (ASF) virus; settings: cited from earlier work
[13] = test system: retroviruses such as murine sarcoma virus (MSV); settings: cited from earlier work
[14] = test system: herpes simplex virus type 1; settings: mice and rabbits, local and systemic HSV-1 infections, including herpetic keratitis caused by acyclovir-type-drug-resistant TK^- mutant; cited from earlier work
HCMV [15] = experiment: Activity against HCMV in tissue culture (NHDF cell line); assay type: cell-based; settings: Human betaherpesvirus 5
Source text: The title compound was synthesized using N^4 -benzoyl HPMPC diethyl ester tritylated at the hydroxyl group as a starting material. The starting material was detritylated using acetic acid and then converted to N^4 -benzoyl HPMPC using TMSBr. The resulting compound was converted to N^4 -benzoyl cHPMPC using DCC and morpholine in pyridine.

[16] = test system: human cytomegalovirus (HCMV); settings: in both humans and animals; cited from earlier work
in vitro = assay type: cell-based; settings: monkey, ma 104 cells
Protocol: Compounds were individually tested for activity against HSV-1 and/or HSV-2. HSV-2 (strain 414-92) was tested using MA 104 cells in the following assay protocol. 96-Well plates were seeded with 1×10^4 MA 104 cells per well using 200 μL minimal essential medium (MEM) containing 10% calf serum per well, and incubated overnight at 37° C. The compounds were dissolved in MEM Earle's Salts without serum. The medium was removed by aspiration and 100 μL MEM Earle's Salts without serum was added to the wells. Serial 3-fold dilutions of the compounds were prepared by serial transfer of 50 μL of medium from wells containing compound to wells lacking compound. The plates were incubated 15 minutes at 37° C. followed by addition of 100 PFU/well of virus in MEM Earle's Salts with 2% fetal bovine serum. The plates were then incubated at 37° C. for three days until approximately 90% of the cells in virus infected control wells containing no compound were killed. Following incubation, medium was aspirated and the wells were washed with sterile PBS. 100 μL 0.5% crystal violet in 20% methanol was then added to the wells for 5 minutes, aspirated and the wells were washed two or three times with distilled water. 200 μL of 0.01 N HCl was added to the wells and the absorbance of each well at 595 nm was determined. […]

in vivo = settings: rhesus monkey, po
[17] = rhesus monkey, in vivo; cited from earlier work
[18] = MA 104 cells, HSV-2 strain 414-92, three days
[19] = Human alphaherpesvirus 1, KOS strain of HSV-1, VERO cells

In the case of `CCOC(=O)C(CC(C)C)NP(=O)(COCCn1cnc2c(N)ncnc21)NC(CC(C)C)C(=O)OCC` (centres unmarked) [Ex 6], the IC50 (HSV-2 (strain 414-92); [18]) is reported as 33 µM, the CC50 at 72 h [1] is reported as over 100 µM and the EC50 (KOS strain of HSV-1; [19]) is reported as 20 µM.

`CC(NP(=O)(COCCn1cnc2c(N)ncnc21)NC(C)C(=O)OC(C)(C)C)C(=O)OC(C)(C)C` (centres unmarked) [Ex 10] gave an IC50 (HSV-2 (strain 414-92); [18]) of over 100 µM, a CC50 at 72 h [1] of over 100 µM and an EC50 (KOS strain of HSV-1; [19]) of over 200 µM.

`CC(C)(C)OC(=O)CNP(=O)(COCCn1cnc2c(N)ncnc21)NCC(=O)OC(C)(C)C` [Ex 11] gave an IC50 (HSV-2 (strain 414-92); [18]) of over 100 µM, a CC50 at 72 h [1] of over 100 µM and an EC50 (KOS strain of HSV-1; [19]) of over 200 µM.

In the case of `CC(NP(=O)(COCCn1cnc2c(N)ncnc21)NC(C)C(=O)OCc1ccccc1)C(=O)OCc1ccccc1` (centres unmarked) [Ex 1, bis(alanyl benzyl ester)PMEA], the IC50 (HSV-2 (strain 414-92); [18]) is reported as 20 µM and the CC50 at 72 h [1] is reported as over 100 µM.

In the case of `CC(C)(C)C(=O)OCOP1(=O)CO[C@@H](Cn2ccc(N)nc2=O)CO1` (some centres unmarked) [cHPMPC pivaloyloxymethyl ester], the “metabolic conversion in homogenate” value ([2]; one of the two phosphorus isomers) is reported as “converted to cHPMPC”, the “metabolic conversion in homogenate” value ([2]; the other phosphorus isomer) is reported as “converted to HPMPC pivaloyloxymethyl monoester” and the “conversion in intestinal wash” value [3] is reported as “converted to HPMPC pivaloyloxymethyl monoester”.

With `Nc1ncnc2c1ncn2CCOCP(=O)(O)Oc1ccccc1` [monophenylPMEA, monophenyl ester of PMEA] the “activity (inhibition of cytopathic effects)” value (HSV II) was “active”.

With `CCOC(=O)c1ccccc1OP(=O)(COCCn1cnc2c(N)ncnc21)Oc1ccccc1C(=O)OCC` the “activity (inhibition of cytopathic effects)” value (HSV II) was “active”.

For `Nc1nc(N)c2ncn(C[C@@H](CO)OCP(=O)(O)O)c2n1` [(S)-HPMPDAP], the antiviral activity [4] is given as “active”.

In the case of `Nc1nc2c(ncn2C[C@@H](CO)OCP(=O)(O)O)c(=O)[nH]1` [(S)-HPMPG], the antiviral activity [4] is listed as “active”.

In the case of `Nc1ncnc2c1ncn2C[C@@H](CO)OCP(=O)(O)O` [(S)-HPMPA], the antiviral activity [4] is listed as “active; also recorded: potent and selective activity”, the antiviral activity [5] is listed as “active; also recorded: potent and selective activity” and the antiviral activity (adenovirus) is listed as “active; also recorded: potent and selective activity”. For the same compound, the antiviral activity (vaccinia virus) was “active; also recorded: potent and selective activity”, the antiviral activity [6] was “potent and selective activity” and the antiviral activity (HCMV [7]) was “potent and selective activity”. For the same compound, the antiviral activity [8] was “potent and selective activity”, the antiviral activity [9] was “potent and selective activity” and the antiviral activity [10] was “potent and selective activity”. The antiviral activity [11] was “potent and selective activity”, the antiviral activity [12] was “potent and selective activity” and the antiviral activity [13] was “potent and selective activity”. The “in vivo antiviral effect” value [14] was “effective”.

In the case of `Nc1ncnc2c1ncn2C[C@H]1COP(=O)(O)CO1` [(S)-cyclic HPMPA], the antiviral activity [4] is given as “active”, the antiviral activity [5] is given as “active” and the antiviral activity (adenovirus) is given as “active”. The antiviral activity (vaccinia virus) was “active”.

In the case of `O=C(Nc1ccn(C[C@H]2COP(=O)(O)CO2)c(=O)n1)c1ccccc1` [N^4 -benzoyl cHPMPC], the IC50 (HCMV [15]) is reported as 22 µM.

Compound `CC(C)CC(NP(=O)(COCCn1cnc2c(N)ncnc21)NC(CC(C)C)C(=O)OC(C)(C)C)C(=O)OC(C)(C)C` (centres unmarked) [Ex 9] has an IC50 (HSV-2 (strain 414-92); [18]) of 63 µM, a CC50 at 72 h [1] of over 100 µM and an EC50 (KOS strain of HSV-1; [19]) of 63 µM.

In the case of `Nc1ccn(C[C@@H](CO)OCP(=O)(O)O)c(=O)n1` [HPMPC], the IC50 (HCMV [15]) is given as 0.4 µM, the antiviral activity [4] is given as “active” and the antiviral activity [16] is given as “active”.

Work on `CCOC(=O)C(Cc1ccccc1)NP(=O)(COCCn1cnc2c(N)ncnc21)NC(Cc1ccccc1)C(=O)OCC` (centres unmarked) [Ex 12] yielded an IC50 (HSV-2 (strain 414-92); [18]) of 20 µM and a CC50 at 72 h [1] of 80 µM.

In the case of `CN(C)c1cccc(OP(=O)(COCCn2cnc3c(N)ncnc32)Oc2cccc(N(C)C)c2)c1` [bis(3-dimethylaminophenyl)PMEA], the “activity (inhibition of cytopathic effects)” value (HSV II) is reported as “active”.

In the case of `COc1cccc(OP(=O)(COCCn2cnc3c(N)ncnc32)Oc2cccc(OC)c2)c1` [bis(3-methoxyphenyl)PMEA], the “activity (inhibition of cytopathic effects)” value (HSV II) is reported as “active”.

With `Nc1ncnc2c1ncn2CCOCP(=O)(Oc1ccccc1)Oc1ccccc1` [bis(phenyl)PMEA, Bis(phenyl)PMEA] the “activity (inhibition of cytopathic effects)” value (HSV II) was “active”.

With `CC(C)(C)C(=O)OCOP(=O)(COCCn1cnc2c(N)ncnc21)OCOC(=O)C(C)(C)C` [bis(POM)PMEA, reference compound] the “activity (inhibition of cytopathic effects)” value (HSV II) was “active”, the IC50 (HSV II) was 0.5 µM and the CC50 (in vitro) was over 10 µM. It also gave a bioavailability (in vivo) of about 25%.

`CCOC(=O)C(C)NP(=O)(COCCn1cnc2c(N)ncnc21)NC(C)C(=O)OCC` (centres unmarked) [Ex 5] showed an IC50 (HSV-2 (strain 414-92); [18]) of over 100 µM and a CC50 at 72 h [1] of over 100 µM.

For `Nc1ncnc2c1ncn2CCOCP(=O)(NCC(=O)OCc1ccccc1)NCC(=O)OCc1ccccc1` [Ex 4, bis(glycyl benzyl ester)PMEA], the IC50 (HSV-2 (strain 414-92); [18]) was 60 µM and the CC50 at 72 h [1] was over 100 µM.

`Nc1ncnc2c1ncn2CCOCP(=O)(NC(Cc1ccccc1)C(=O)OCc1ccccc1)NC(Cc1ccccc1)C(=O)OCc1ccccc1` (centres unmarked) [Ex 2] showed an IC50 (HSV-2 (strain 414-92); [18]) of 4 µM and a CC50 at 72 h [1] of 20 µM.

`CCOC(=O)CNP(=O)(COCCn1cnc2c(N)ncnc21)NCC(=O)OCC` [Ex 7] gave an IC50 (HSV-2 (strain 414-92); [18]) of over 100 µM, a CC50 at 72 h [1] of over 100 µM and an EC50 (KOS strain of HSV-1; [19]) of over 200 µM.

With `Nc1ncnc2c1ncn2CCOCP(=O)(Oc1ccc(F)cc1)Oc1ccc(F)cc1` [bis(4-fluorophenyl)PMEA] the “activity (inhibition of cytopathic effects)” value (HSV II) was “active”.

In the case of `CCOc1ccccc1OP(=O)(COCCn1cnc2c(N)ncnc21)Oc1ccccc1OCC` [bis(2-ethoxyphenyl)PMEA, Bis(2-ethoxyphenyl)PMEA], the “activity (inhibition of cytopathic effects)” value (HSV II) is reported as “active”.

Work on `Nc1ncnc2c1ncn2CCOCP(=O)(O)O` [PMEA, reference compound] yielded an IC50 (HSV-2 (strain 414-92)) of 21 µM, an EC50 (KOS strain of HSV-1; Human alphaherpesvirus 1, Vero) of 138 µM and an IC50 (HSV II) of 19.3 µM. The CC50 (in vitro) was 2000 µM and the Oral bioavailability [17] was 2-4%.

In the case of `Nc1ncnc2c1ncn2CCOCP(=O)(OCOC(=O)C12CC3CC(CC(C3)C1)C2)OCOC(=O)C12CC3CC(CC(C3)C1)C2` [bis(adamantoyl oxymethyl)PMEA, bis(adamantoyl oxymethyl)PMEA ester], the “activity (inhibition of cytopathic effects)” value (HSV II) is reported as “active”.
